Laboratory results taken from the OligoGym collection.
HELM strings list units from the 5' end as sugar, base in round brackets, then linkage (d deoxyribose, r ribose, m 2'-O-methyl, p phosphodiester). Strings are as the collection lists them; they lack the last nucleoside at the 3' end of the tested compound. [moe] = 2'-O-(2-methoxyethyl) (MOE); [sp] = phosphorothioate linkage; [m5C] = 5-methylcytosine

Molecular target: ATXN2
Assay: mouse, dose not given
Details: ASO

Substance | 3 h FOB score [score 0-7]
RNA1{[moe]([m5C])[sp].[moe](A)p.[moe](G)p.[moe](T)p.[moe](G)p.d(T)[sp].d(T)[sp].d(G)[sp].d([m5C])[sp].d(A)[sp].d([m5C])[sp].d(A)[sp].d(T)[sp].d(A)[sp].d(G)[sp].[moe](G)p.[moe](T)p.[moe](T)[sp].[moe](A)}$$$$ (last 3' nucleoside missing) | 5
RNA1{[moe]([m5C])[sp].[moe](A)p.[moe](G)p.[moe](T)p.[moe](G)p.d([m5C])[sp].d([m5C])[sp].d(T)[sp].d(T)[sp].d(T)[sp].d(A)[sp].d([m5C])[sp].d([m5C])[sp].d([m5C])[sp].d([m5C])[sp].[moe](T)p.[moe](T)p.[moe](G)[sp].[moe](A)}$$$$ (last 3' nucleoside missing) | 5.25
RNA1{[moe]([m5C])[sp].[moe](A)p.[moe](G)p.[moe]([m5C])p.[moe](A)p.d(T)[sp].d(G)[sp].d(A)[sp].d(T)[sp].d([m5C])[sp].d(T)[sp].d(T)[sp].d(G)[sp].d(T)[sp].d(G)[sp].[moe](T)p.[moe](A)p.[moe](T)[sp].[moe](A)}$$$$ (last 3' nucleoside missing) | 2.25
RNA1{[moe]([m5C])[sp].[moe](A)p.[moe](G)p.[moe]([m5C])p.[moe](T)p.d([m5C])[sp].d(T)[sp].d(G)[sp].d(T)[sp].d(T)[sp].d([m5C])[sp].d(G)[sp].d(A)[sp].d(T)[sp].d(G)[sp].[moe]([m5C])p.[moe](A)p.[moe](G)[sp].[moe](G)}$$$$ (last 3' nucleoside missing) | 6.25
RNA1{[moe]([m5C])[sp].[moe](A)p.[moe](T)p.[moe](A)p.[moe]([m5C])p.d(G)[sp].d([m5C])[sp].d(G)[sp].d(G)[sp].d(T)[sp].d(G)[sp].d(A)[sp].d(A)[sp].d(T)[sp].d(T)[sp].[moe]([m5C])p.[moe](T)p.[moe](G)[sp].[moe](T)}$$$$ (last 3' nucleoside missing) | 4
RNA1{[moe]([m5C])[sp].[moe](A)p.[moe](T)p.[moe](T)p.[moe](T)p.d(T)[sp].d(G)[sp].d(A)[sp].d(A)[sp].d(T)[sp].d(T)[sp].d(A)[sp].d([m5C])[sp].d(A)[sp].d(A)[sp].[moe](T)p.[moe](G)p.[moe]([m5C])[sp].[moe](G)}$$$$ (last 3' nucleoside missing) | 1
RNA1{[moe]([m5C])[sp].[moe](A)p.[moe]([m5C])p.[moe](A)[sp].[moe](G)[sp].d(T)[sp].d(T)[sp].d(T)[sp].d([m5C])[sp].d(A)[sp].d([m5C])[sp].d(T)[sp].d(A)[sp].d(G)[sp].d(G)[sp].[moe](T)p.[moe](T)p.[moe]([m5C])[sp].[moe](T)}$$$$ (last 3' nucleoside missing) | 4
RNA1{[moe]([m5C])[sp].[moe](A)p.[moe]([m5C])p.[moe](A)p.[moe](G)[sp].d(T)[sp].d(T)[sp].d(T)[sp].d([m5C])[sp].d(A)[sp].d([m5C])[sp].d(T)[sp].d(A)[sp].d(G)[sp].d(G)[sp].[moe](T)p.[moe](T)p.[moe]([m5C])[sp].[moe](T)}$$$$ (last 3' nucleoside missing) | 4.75
RNA1{[moe]([m5C])[sp].[moe](A)p.[moe]([m5C])p.[moe](A)p.[moe](G)p.d(T)[sp].d(T)[sp].d(T)[sp].d([m5C])[sp].d(A)[sp].d([m5C])[sp].d(T)[sp].d(A)[sp].d(G)[sp].d(G)[sp].[moe](T)p.[moe](T)p.[moe]([m5C])[sp].[moe](T)}$$$$ (last 3' nucleoside missing) | 4.25
RNA1{[moe]([m5C])[sp].[moe](A)p.[moe]([m5C])p.[moe](A)p.[moe]([m5C])p.d(A)[sp].d([m5C])[sp].d(T)[sp].d(T)[sp].d(T)[sp].d(A)[sp].d(A)[sp].d(A)[sp].d(T)[sp].d(A)[sp].[moe]([m5C])p.[moe](A)p.[moe](G)[sp].[moe](G)}$$$$ (last 3' nucleoside missing) | 6.5
